Test results taken from patent US5254801A, “Heterologous dominant conditional lethal gene which is a phosphonate monoester hydrolase and use thereof in plants” (Monsanto Company, priority 1990, dated 1993).

Experiments:
PG2982 = assay: In vivo (3-14C-) glyceryl glyphosate hydrolysis assay in whole cells; format: cell-based, Pseudomonas caryophilli; conditions: strain PG2982; three hour incubation, 30° C.
Experimental: (§1) Bacteria which grew in this medium using glyceryl glyphosate as a sole phosphate source had the ability to cleave both the ester and the phosphonate bond to release the free phosphate. For these bacteria to be useful in the present invention, the first step in the mineralization of glyceryl glyphosate needed is the hydrolysis of the phosphonate ester. Each of the three bacteria which utilized glyceryl glyphosate as a phosphate source were then assayed for a phosphonate monoester hydrolase activity using an in vivo (3-^14 C-) glyceryl glyphosate assay. A 150 ml culture of each bacteria was grown in DF minimal medium with 0.2 mM HK2 PO4 as a phosphate source in a 500 ml flask, 30° C., with shaking. The bacteria were pelleted by centrifugation at 5,000×g for 10 min and resuspended at 10 mg fresh weight/ml. An assay mix included 50 μl cells plus 10 μl (3-^14 C-) glyceryl glyphosate (10,000 cpm/μl) and kept at 30° C. with shaking. After a three hour incubation period, the cells were pelleted in a microfuge and the supernatant injected onto an HPLC anion exchange column and glyphosate analyzed as described above. The pellet was washed twice with 1 ml 10 mM HEPES, pH 7.0, and resuspended in 25 μl buffer. The cells were lysed with 25 μl quench and the debris pelleted in a microfuge. The pellet extract was then analyzed for glyphosate product as described above. […]

LBAA crude extract = assay: In vitro radioactive hydrolysis assay in crude extracts; format: biochemical; conditions: strain LBAA
From the text: (§2) The enzymatic reaction can be assayed using labelled (3-^14 C-) glyceryl glyphosate as a substrate and following the conversion to (3-^14 C-)glyphosate as a product using a high pressure liquid chromatography system with a radioactive detector. This assay is the most specific for the phosphonate monoester hydrolase enzymes useful for conditional cell lethality. An enzyme assay consists of 40,000 cpm of labelled (3-^14 C-) glyceryl glyphosate (obtained from NEN Biochemicals), the PEH sample in buffer and buffer to 100 μl final volume. The assay buffer is 10 mM Bis-Tris propane, pH 9.0, plus 100 mM KCl. The reaction is run for 1 hour at 30° C. and then stopped by the addition of 100 μl "quench" which is 100 mM sodium acetate, pH 5.5, in ethanol. The denatured protein is then spun down at 10,000 rpm in a microfuge and the supernatant transferred to an HPLC injection vial. A 100 μl aliquot is then injected onto an Synchropac AX100 anion exchange column 4.6×250 mm) pre-equilibrated in 65 mM potassium phosphate buffer, pH 5.5. The radioactive compounds are eluted isocratically for 15 min at 1 ml/min. The radioactivity of the peaks is measured and integrated by a post-column detector. Typically, the substrate elutes at 4.9 min and the product, glyphosate, at 9.7 min providing baseline separation. […] Alternatively, blank reactions can be included to determine the preexisting glyphosate contamination.
as §1

[1] = tested on: E. coli MM294, JM101, JM101/MPU+, SR200/MPU crude extract; assay: as above; format: biochemical; conditions: E. coli strains
From the text: as §2, §1

T12 crude extract = assay: as above; format: biochemical; conditions: strain T12
From the text: as §2, §1

T10 crude extract = assay: as above; format: biochemical; conditions: strain T10
From the text: as §2, §1

[2] = Translocation of radiolabelled compound applied to tomato leaves; format: in vivo; conditions: tissues analysed after two days
Experimental: The critical tests for a prophytotoxin to be used in negative selection, cell ablation and as a gametocide are that the compound is non-phytotoxic per se but can be hydrolyzed into a phytotoxin by the phosphonate monoester hydrolase protein. The most general and specific method to determine if a protoxin is hydrolyzed to a toxic form of glyphosate is a HPLC assay. The compounds are dissolved at 100 mM concentration in a suitable buffer such as 10 mM TAPS, (N-Tris(hydroxymethyl)methyl-2-aminopropane sulfonic acid) pH 9.0. Triplicate samples (0.1 ml) of the compound are then diluted with 0.9 ml of 10 mM TAPS, pH 9.0 and with 0.9 ml 10 mM TAPS, pH 9.0 plus one unit (1 μmol/min) of enzyme. After 24 hour incubation at 25° C., the samples are injected onto a HPLC column for glyphosate analysis. […] The protoxin and glyphosate are separated on an anion exchange column. the glyphosate is oxidized as it elutes in the presence of bleach and is then derivatized by o-pthaldehyde to a fluorescent derivative which can be quantitatively measured by a fluorescence monitor. […] After two days, the plant is dissected into individual tissues and the amount of protoxin in each tissue determined. […] The tissue samples were then combusted and the amount of radiolabelled compound in each tissue determined by scintillation counting.

Question: With `O=C(O)CNCP(=O)(O)OCC(O)CO` (stereo not drawn) [glyceryl glyphosate, glycine, N-([hydroxy (2,3 dihydroxy propoxy)phosphonyl]methyl)] as the molecule, how does the “In vivo Hydrolysis of Glyceryl Glyphosate into Glyphosate” value (PG2982) read?
Answer: Yes

Question: And the “Hydrolysis of Glyceryl Glyphosate into Glyphosate in Crude Extracts” value (shortened to “Hydrolysis … in Crude Extracts”) (LBAA crude extract)?
Answer: Yes

Question: And the “Hydrolysis … in Crude Extracts” value [1]?
Answer: No

Question: And the “Hydrolysis … in Crude Extracts” value (T12 crude extract)?
Answer: Yes

Question: What about the “Hydrolysis … in Crude Extracts” value (T10 crude extract) of the same molecule?
Answer: No

Question: What about the “Translocation to developing anthers” value [2] of the same molecule?
Answer: translocates to developing anthers
